This note sets out measurements from ChEMBL document CHEMBL2146420, “RXR Partial Agonist CBt-PMN Exerts Therapeutic Effects on Type 2 Diabetes without the Side Effects of RXR Full Agonists” (ACS Med Chem Lett, 2012).

Activity calls are given as the source filed them. The rule behind the calls is not given here.

Data set [1] concerns the target T1, Oxysterols receptor LXR-alpha (Homo sapiens) (UniProt Q13133).
T1 sequence (whole entry): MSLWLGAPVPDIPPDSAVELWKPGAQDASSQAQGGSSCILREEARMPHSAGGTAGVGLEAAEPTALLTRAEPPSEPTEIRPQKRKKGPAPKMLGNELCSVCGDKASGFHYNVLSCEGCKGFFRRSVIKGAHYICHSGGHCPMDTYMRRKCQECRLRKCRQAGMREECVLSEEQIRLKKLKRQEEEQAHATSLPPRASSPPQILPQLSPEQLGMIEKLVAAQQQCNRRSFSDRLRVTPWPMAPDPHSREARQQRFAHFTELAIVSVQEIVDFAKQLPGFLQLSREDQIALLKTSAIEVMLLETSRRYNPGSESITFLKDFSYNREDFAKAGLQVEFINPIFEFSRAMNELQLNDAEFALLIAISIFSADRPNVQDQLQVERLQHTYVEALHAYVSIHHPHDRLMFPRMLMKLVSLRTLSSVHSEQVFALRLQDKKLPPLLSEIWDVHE
Put plainly: Agonist activity at LXRalpha expressed in […] Cos1 cells after 18 hrs by SEAP reporter gene assay. The format is functional, cell-based. For orientation: A reporter such as luciferase makes a cellular process visible.

The target in data set [2] is RXR alpha/PPAR gamma (Homo sapiens) (UniProt P37231+P19793). Put plainly: Agonist activity at PPARgamma/RXRalpha expressed in […] Cos1 cells after 18 hrs by SEAP reporter gene assay. The format is functional, cell-based.
Data set [3] has as its system Rattus norvegicus. Briefly: Toxicity in male Sprague-Dawley rat assessed as enlarged testes at 30 mg/kg/day, po for 28 days relative to vehicle-treated control. The conditions noted are these: in vivo, 672 h. The format is organism-based, Testis. Also noted: route oral.
Data set [4] has as its system Serum. Briefly: Drug level in ICR mouse serum at 30 mg/kg, po. Further details: dose 30 mg/kg, route oral. As to conditions: in vivo, read-out: Drug uptake. The format is ADME, organism-based.
Data set [5] concerns the target T2, Peroxisome proliferator-activated receptor gamma (Homo sapiens) (UniProt P37231).
T2 sequence (whole entry): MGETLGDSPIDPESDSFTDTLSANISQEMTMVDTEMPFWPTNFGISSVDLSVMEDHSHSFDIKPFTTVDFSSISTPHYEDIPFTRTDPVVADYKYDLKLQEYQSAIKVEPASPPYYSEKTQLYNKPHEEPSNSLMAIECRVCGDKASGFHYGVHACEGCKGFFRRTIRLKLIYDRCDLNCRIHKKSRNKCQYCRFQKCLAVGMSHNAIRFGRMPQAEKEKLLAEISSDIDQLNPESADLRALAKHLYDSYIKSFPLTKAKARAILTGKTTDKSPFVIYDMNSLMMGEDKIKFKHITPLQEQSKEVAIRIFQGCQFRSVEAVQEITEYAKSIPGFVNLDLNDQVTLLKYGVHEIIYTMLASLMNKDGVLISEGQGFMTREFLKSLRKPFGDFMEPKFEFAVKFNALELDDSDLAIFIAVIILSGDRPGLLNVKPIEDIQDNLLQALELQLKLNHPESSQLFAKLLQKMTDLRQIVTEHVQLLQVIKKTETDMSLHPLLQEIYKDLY
Briefly: Agonist activity at PPARgamma expressed in […] Cos1 cells after 18 hrs by SEAP reporter gene assay. The format is functional, cell-based.

Data set [6] concerns the target T3, Retinoic acid receptor RXR-alpha (Homo sapiens) (UniProt P19793).
T3 sequence (whole entry): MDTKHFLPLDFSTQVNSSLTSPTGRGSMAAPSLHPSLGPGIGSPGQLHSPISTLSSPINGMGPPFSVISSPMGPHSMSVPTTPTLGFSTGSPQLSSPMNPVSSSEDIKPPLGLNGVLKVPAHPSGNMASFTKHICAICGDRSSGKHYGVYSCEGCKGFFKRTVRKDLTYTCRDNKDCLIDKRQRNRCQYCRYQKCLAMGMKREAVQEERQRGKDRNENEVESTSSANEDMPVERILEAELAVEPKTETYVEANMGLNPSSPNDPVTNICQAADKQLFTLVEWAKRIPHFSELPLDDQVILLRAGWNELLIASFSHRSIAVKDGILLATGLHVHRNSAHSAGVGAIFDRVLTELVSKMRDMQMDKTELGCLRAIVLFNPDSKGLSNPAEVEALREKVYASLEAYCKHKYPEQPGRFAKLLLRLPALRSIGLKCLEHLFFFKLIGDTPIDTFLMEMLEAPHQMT
Put plainly: Agonist activity at RXRalpha expressed in […] Cos1 cells after 18 hrs by SEAP reporter gene assay. The format is functional, cell-based.

For data set [7], the system named is Mus musculus. Put plainly: Toxicity in ICR mouse assessed as increase in liver weight at 30 mg/kg/day, po for 7 days relative to vehicle-treated control. The format is organism-based. Further details: route oral. The conditions noted are these: in vivo, 168 h.
In data set [8] the target is Retinoic acid receptor RXR-alpha/oxysterols receptor LXR-alpha (Homo sapiens) (UniProt P19793+Q13133). Briefly: Agonist activity at LXRalpha/RXRalpha expressed in […] Cos1 cells after 18 hrs by SEAP reporter gene assay. The format is functional, cell-based.
Data set [9] concerns Mus musculus. Put plainly: Toxicity in ICR mouse assessed as increase in body weight at 30 mg/kg/day, po for 7 days relative to vehicle-treated control. As to conditions: in vivo, 168 h. The format is organism-based. Also noted: route oral.
Data set [10] deals with Mus musculus. Briefly: Upregulation of Scd1 mRNA expression in KK-Ay mouse liver at 10 mg/kg/day, po administered for 14 days by RT-PCR analysis. The format is ADME, organism-based. Also noted: route oral. As to conditions: in vivo, 336 h.
For data set [11], the system named is Mus musculus. Briefly: Upregulation of Srebp1c mRNA expression in KK-Ay mouse liver at 10 mg/kg/day, po administered for 14 days by RT-PCR analysis. The format is functional, organism-based.
Data set [12] relates to Mus musculus. Briefly: Toxicity in KK-Ay mouse assessed as increase in body weight at 10 mg/kg/day, po administered for 14 days relative to vehicle-treated control. Further details: route oral. The format is organism-based. As to conditions: in vivo, 336 h.
For data set [13], the system named is Mus musculus. Put plainly: Toxicity in KK-Ay mouse assessed as increase in serum triglyceride level at 10 mg/kg/day, po administered for 14 days relative to vehicle-treated control. The format is organism-based. Also noted: route oral. As to conditions: in vivo, 336 h.
For data set [14], the system named is Mus musculus. Briefly: Toxicity in KK-Ay mouse assessed as increase in liver weight at 10 mg/kg/day, po administered for 14 days relative to vehicle-treated control. The format is organism-based. Further details: route oral. The conditions noted are these: in vivo, 336 h.
The subject of data set [15] is Mus musculus. Put plainly: Upregulation of Irs1 mRNA expression in KK-Ay mouse liver at 10 mg/kg/day, po administered for 14 days by RT-PCR analysis. The format is functional, organism-based.
Data set [16] has as its system Mus musculus. Put plainly: Toxicity in KK-Ay mouse assessed as increase in total cholesterol level at 10 mg/kg/day, po administered for 14 days relative to vehicle-treated control. Also noted: route oral. The format is organism-based. The conditions noted are these: in vivo, 336 h.
Data set [17] deals with Mus musculus. Put plainly: Downregulation of G6p mRNA expression in KK-Ay mouse liver at 10 mg/kg/day, po administered for 14 days by RT-PCR analysis. The format is functional, organism-based.
In data set [18] the test system is Mus musculus. Put plainly: Toxicity in ICR mouse assessed as increase in serum triglyceride level at 30 mg/kg/day, po for 7 days relative to vehicle-treated control. The format is organism-based. Further details: route oral. As to conditions: in vivo, 168 h.
For data set [19], the system named is Mus musculus. Briefly: Upregulation of Slc2a1 mRNA expression in KK-Ay mouse liver at 10 mg/kg/day, po administered for 14 days by RT-PCR analysis. The format is functional, organism-based.
For data set [20], the system named is Mus musculus. Briefly: Downregulation of Pck mRNA expression in KK-Ay mouse liver at 10 mg/kg/day, po administered for 14 days by RT-PCR analysis. The format is functional, organism-based.
The subject of data set [21] is Mus musculus. Put plainly: Upregulation of Slc2a2 mRNA expression in KK-Ay mouse liver at 10 mg/kg/day, po administered for 14 days by RT-PCR analysis. The format is functional, organism-based.
Data set [22] concerns Mus musculus. Briefly: Upregulation of Irs2 mRNA expression in KK-Ay mouse liver at 10 mg/kg/day, po administered for 14 days by RT-PCR analysis. The format is functional, organism-based.
Data set [23] deals with Mus musculus. Put plainly: Antidiabetic activity in diabetic, obese KK-Ay mouse assessed as blood glucose level at 10 mg/kg/day, po administered for 14 days measured on day 3 after starting of dosing (reference value: 500 mg/dL). The format is functional.
Data set [24] relates to Mus musculus. Put plainly: Antidiabetic activity in diabetic, obese KK-Ay mouse assessed as increase in adiponectin level at 10 mg/kg/day, po administered for 14 days by oral glucose tolerance test. The format is functional, organism-based.
In data set [25] the test system is Mus musculus. Briefly: Upregulation of Fasn mRNA expression in KK-Ay mouse liver at 10 mg/kg/day, po administered for 14 days by RT-PCR analysis. The format is ADME, organism-based. Further details: route oral. As to conditions: in vivo, 336 h.

On to `Cc1cc2c(cc1-n1c(C)nc3cc(C(=O)O)ccc31)C(C)(C)CCC2(C)C`, for which the outcome in [1], in data set [2], in data set [6] and in data set [8] was Active. Besides, the results for the Activity result in data set [3], in data set [7] and in data set [9] were “Non-toxic”, “Toxic” and “Toxic”, respectively. Also, in data set [4], the concentration came to 1000 nM. For the same molecule, the outcome in data set [5] was inactive.

`CCN(c1ccc2c(c1)C(C)(C)CCC2(C)C)c1ccc(C(=O)O)cn1`: the Activity entry in data set [10] is “Toxic”; in data set [12] it was “Toxic”; in data set [3], “Non-toxic”; in data set [13], “Toxic”; in [14], “Toxic”; in data set [16], “Toxic”. The Activity entry in data set [18] is “Toxic”; in data set [7], “Toxic”; in [23], 300 mg/dL; in [25], “Toxic”; in data set [9], “Toxic”. Besides, the result in data set [11], in data set [5], in data set [15], in [17], in data set [19] and in data set [20] was inactive. Besides, the outcome in [21] and in data set [22] was inactive. The outcome in data set [1], in data set [2], in data set [24] and in [8] was Active. For the same molecule, the concentration in data set [4] stood at 1000 nM.

`Cc1cc2c(cc1-n1nnc3cc(C(=O)O)ccc31)C(C)(C)CCC2(C)C`: in data set [4], the concentration was determined as 1000 nM.
